Measurements: patent US8088817B2, “Pyrrole derivative having, as substituents, ureido group, aminocarbonly group and bicyclic group which may have substituent” (Santen Pharmaceutical Co., Ltd., priority 2008, dated 2012)

system: TNF-α-induced IL-6 production in normal human skin fibroblast-derived CCD-1059Sk cells; test: Test for measurement of inhibitory activity against TNF-α-induced IL-6 production in CCD-1059Sk cells (HTRF Human IL-6 kit); assay type: cell-based; settings: test compound at 10 μM; TNF-α-stimulated CCD-1059Sk cells, 16 hours; inhibition ratio which is 100% or more is indicated to be 100%
Description: 1. Test for Measurement of Inhibitory Activity Against IL-6 Production
An inhibitory effect on TNF-α-induced IL-6 production in normal human skin fibroblast-derived CCD-1059Sk cells (ATCC No. CRL-2072) was evaluated. The amount of IL-6 was determined by the homogeneous time-resolved fluorescence method using HTRF™ Human IL-6 kit (Cat. No. 62IL6PEB, manufactured by CIS-Bio international, Inc.). Specific test methods will be described below.
(Preparation of Test Compound Solution)
After a test compound was dissolved in dimethyl sulfoxide, the resulting solution was diluted with D-MEM medium containing 0.1% heat-inactivated fetal bovine serum, 0.1 mM MEM non-essential amino acid solution, 100 U/mL penicillin and 100 μg/mL streptomycin (hereinafter referred to as “medium”), whereby a 40 μM test compound solution was prepared.
(Test Method and Measurement Method)
1) CCD-1059Sk cells prepared at a density of 3×10^5 cells/mL were inoculated in a 384-well plate in an amount of 10 μL per well such that the cell density was 3×10^3 cells/well.
2) After the plate was incubated at 37° C. for several hours in a CO2 incubator, 5 μL of the test compound solution was added to each well.
3) After the plate was incubated at 37° C. for 1 hour in a CO2 incubator, 5 μL of a 40 ng/mL TNF-α solution was added to each well.
4) After the plate was incubated at 37° C. for 16 hours in a CO2 incubator, 10 μL of a cryptate-labeled anti-IL-6 antibody and an XL665-labeled anti-IL-6 antibody containing potassium fluoride were added to each well.
5) After the plate was incubated at room temperature for several hours, a fluorescence intensity ratio (665 nm/620 nm) was determined for each well using a multimode plate reader Analyst™ HT (manufactured by Molecular Device Corporation) and Criterion Host software version 2.00 (manufactured by Molecular Device Corporation), and then, the amount of IL-6 was calculated.
6) The same procedures as in the above 1) to 5) were performed except that 0.4% dimethyl sulfoxide was added in place of the test compound, and the obtained result was designated as the control.
7) The same procedures as in the above 1) to 5) were performed except that 0.4% dimethyl sulfoxide and the medium were added in place of the test compound and the TNF-α solution, respectively, and the obtained result was designated as the background.
(Calculation Formula of IL-6 Production Inhibition Ratio)
An IL-6 production inhibition ratio (%) was calculated from the following equation. IL-6 Production Inhibition Ratio(%)=100×{1−[(Amount of IL-6 for Test Compound)−(Amount of IL-6 for Background)]/[(Amount of IL-6 for Control)−(Amount of IL-6 for Background)]} (Evaluation Results)

With `NC(=O)Nc1[nH]c(-c2ccc3ccccc3c2)cc1C(N)=O` [Compound No. 1-1, 2-Aminocarbonylamino-5-(2-naphthyl)pyrrole-3-carboxamide] as the molecule, how does the “IL-6 production inhibition ratio (%)” value read?
The value was 90%.

With `NC(=O)Nc1[nH]c(-c2cc3ccccc3o2)cc1C(N)=O` [Compound No. 1-5, 2-Aminocarbonylamino-5-(benzofuran-2-yl)pyrrole-3-carboxamide] as the molecule, how does the “IL-6 production inhibition ratio (%)” value read?
The value was 98%.

For `NC(=O)Nc1[nH]c(-c2ccc3sccc3c2)cc1C(N)=O` [Compound No. 1-6, 2-Aminocarbonylamino-5-(benzothiophen-5-yl)pyrrole-3-carboxamide], which “IL-6 production inhibition ratio (%)” value is on record?
The value was 95%.

`NC(=O)Nc1[nH]c(-c2ccc3occc3c2)cc1C(N)=O` [Compound No. 1-8, 2-Aminocarbonylamino-5-(benzofuran-5-yl)pyrrole-3-carboxamide] was tested. Which “IL-6 production inhibition ratio (%)” value did it give?
The value was 86%.

`NC(=O)Nc1[nH]c(-c2cccc3c2OCCO3)cc1C(N)=O` [Compound No. 1-12, 2-Aminocarbonylamino-5-(2,3-dihydro-1,4-benzodioxin-5-yl)pyrrole-3-carboxamide] was tested. Which “IL-6 production inhibition ratio (%)” value did it give?
Its value is 97%.

Which “IL-6 production inhibition ratio (%)” value does the source give for `Cc1c(-c2cc(C(N)=O)c(NC(N)=O)[nH]2)sc2ccccc12` [Compound No. 1-15, 2-Aminocarbonylamino-5-(3-methylbenzothiophen-2-yl)pyrrole-3-carboxamide] here?
The value was 98%.

Which “IL-6 production inhibition ratio (%)” value does the source give for `NC(=O)Nc1[nH]c(-c2cccc3c2OCC3)cc1C(N)=O` [Compound No. 3-1, 2-Aminocarbonylamino-5-(2,3-dihydrobenzofuran-7)pyrrole-3-carboxamide] here?
Its value is no less than 100%.
